± gives the expanded uncertainty stated by the source.
Experiment: molar heat capacity at constant volume
Conditions: Fluid (supercritical or subcritical phases), Vacuum adiabatic calorimetry

CCC(C)O (stereo unspecified) [butan-2-ol]
molar heat capacity at constant volume (538.48 K, Mass density=279.19 kg/m3): 275.36 ± 2.7 J/K/mol | molar heat capacity at constant volume (538.48 K, Mass density=284.93 kg/m3): 266.32 ± 2.7 J/K/mol | molar heat capacity at constant volume (538.48 K, Mass density=286.65 kg/m3): 296.63 ± 3 J/K/mol | molar heat capacity at constant volume (538.48 K, Mass density=301.19 kg/m3): 256.46 ± 3 J/K/mol | molar heat capacity at constant volume (538.66 K, Mass density=117 kg/m3): 318.5 ± 4.1 J/K/mol | molar heat capacity at constant volume (538.66 K, Mass density=284.93 kg/m3): 265.65 ± 2.7 J/K/mol | molar heat capacity at constant volume (538.66 K, Mass density=286.65 kg/m3): 296.86 ± 3 J/K/mol | molar heat capacity at constant volume (538.66 K, Mass density=301.19 kg/m3): 250.53 ± 2.2 J/K/mol | molar heat capacity at constant volume (538.84 K, Mass density=117 kg/m3): 306.2 ± 4.6 J/K/mol | molar heat capacity at constant volume (538.84 K, Mass density=286.65 kg/m3): 297.08 ± 3 J/K/mol | molar heat capacity at constant volume (539.03 K, Mass density=286.65 kg/m3): 296.34 ± 3 J/K/mol | molar heat capacity at constant volume (539.57 K, Mass density=286.65 kg/m3): 285.07 ± 2.9 J/K/mol | molar heat capacity at constant volume (539.76 K, Mass density=279.19 kg/m3): 283.52 ± 2.9 J/K/mol | molar heat capacity at constant volume (539.76 K, Mass density=286.65 kg/m3): 288.78 ± 2.9 J/K/mol | molar heat capacity at constant volume (539.94 K, Mass density=184.89 kg/m3): 261.35 ± 2.7 J/K/mol | molar heat capacity at constant volume (539.94 K, Mass density=276.45 kg/m3): 295.89 ± 3 J/K/mol | molar heat capacity at constant volume (539.94 K, Mass density=279.19 kg/m3): 284.48 ± 2.9 J/K/mol | molar heat capacity at constant volume (539.94 K, Mass density=286.65 kg/m3): 282.33 ± 2.9 J/K/mol | molar heat capacity at constant volume (540.12 K, Mass density=184.89 kg/m3): 273.06 ± 2.7 J/K/mol | molar heat capacity at constant volume (540.12 K, Mass density=276.45 kg/m3): 293.89 ± 3 J/K/mol | molar heat capacity at constant volume (540.12 K, Mass density=279.19 kg/m3): 283.74 ± 2.9 J/K/mol | molar heat capacity at constant volume (540.12 K, Mass density=286.65 kg/m3): 282.03 ± 2.8 J/K/mol | molar heat capacity at constant volume (540.12 K, Mass density=403.55 kg/m3): 223.85 ± 2.2 J/K/mol | molar heat capacity at constant volume (540.3 K, Mass density=184.89 kg/m3): 272.25 ± 2.7 J/K/mol | molar heat capacity at constant volume (540.3 K, Mass density=276.45 kg/m3): 297.6 ± 3 J/K/mol | molar heat capacity at constant volume (540.3 K, Mass density=286.65 kg/m3): 280.4 ± 2.8 J/K/mol | molar heat capacity at constant volume (540.3 K, Mass density=403.55 kg/m3): 225.33 ± 2.2 J/K/mol | molar heat capacity at constant volume (540.48 K, Mass density=184.89 kg/m3): 275.73 ± 2.8 J/K/mol | molar heat capacity at constant volume (540.48 K, Mass density=276.45 kg/m3): 293.15 ± 3 J/K/mol | molar heat capacity at constant volume (540.48 K, Mass density=403.55 kg/m3): 226.81 ± 2.2 J/K/mol | molar heat capacity at constant volume (540.67 K, Mass density=184.89 kg/m3): 280.18 ± 2.8 J/K/mol | molar heat capacity at constant volume (540.67 K, Mass density=279.19 kg/m3): 274.92 ± 2.7 J/K/mol | molar heat capacity at constant volume (540.67 K, Mass density=403.55 kg/m3): 223.85 ± 2.2 J/K/mol | molar heat capacity at constant volume (540.85 K, Mass density=184.89 kg/m3): 275.21 ± 2.8 J/K/mol | molar heat capacity at constant volume (540.85 K, Mass density=279.19 kg/m3): 281.29 ± 2.8 J/K/mol | molar heat capacity at constant volume (540.85 K, Mass density=403.55 kg/m3): 223.11 ± 2.2 J/K/mol | molar heat capacity at constant volume (541.03 K, Mass density=279.19 kg/m3): 276.47 ± 2.8 J/K/mol | molar heat capacity at constant volume (541.03 K, Mass density=403.55 kg/m3): 220.88 ± 2.2 J/K/mol | molar heat capacity at constant volume (541.21 K, Mass density=279.19 kg/m3): 278.4 ± 2.8 J/K/mol | molar heat capacity at constant volume (541.4 K, Mass density=279.19 kg/m3): 276.92 ± 2.8 J/K/mol | molar heat capacity at constant volume (542.67 K, Mass density=301.19 kg/m3): 240.15 ± 2.2 J/K/mol | molar heat capacity at constant volume (542.85 K, Mass density=301.19 kg/m3): 240.9 ± 2.2 J/K/mol | molar heat capacity at constant volume (543.03 K, Mass density=301.19 kg/m3): 240.15 ± 2.2 J/K/mol | molar heat capacity at constant volume (547.21 K, Mass density=286.65 kg/m3): 273.21 ± 2.7 J/K/mol | molar heat capacity at constant volume (547.39 K, Mass density=286.65 kg/m3): 272.69 ± 2.7 J/K/mol | molar heat capacity at constant volume (547.57 K, Mass density=284.93 kg/m3): 247.34 ± 2.5 J/K/mol | molar heat capacity at constant volume (547.57 K, Mass density=286.65 kg/m3): 276.33 ± 2.8 J/K/mol | molar heat capacity at constant volume (547.75 K, Mass density=284.93 kg/m3): 250.31 ± 2.5 J/K/mol | molar heat capacity at constant volume (547.75 K, Mass density=286.65 kg/m3): 276.62 ± 2.8 J/K/mol | molar heat capacity at constant volume (547.93 K, Mass density=284.93 kg/m3): 248.31 ± 2.5 J/K/mol | molar heat capacity at constant volume (547.93 K, Mass density=286.65 kg/m3): 276.1 ± 2.8 J/K/mol | molar heat capacity at constant volume (548.11 K, Mass density=284.93 kg/m3): 247.79 ± 2.5 J/K/mol | molar heat capacity at constant volume (548.11 K, Mass density=286.65 kg/m3): 276.33 ± 2.8 J/K/mol | molar heat capacity at constant volume (548.11 K, Mass density=347.06 kg/m3): 235.71 ± 2.2 J/K/mol | molar heat capacity at constant volume (548.29 K, Mass density=284.93 kg/m3): 248.68 ± 2.5 J/K/mol | molar heat capacity at constant volume (548.29 K, Mass density=286.65 kg/m3): 278.03 ± 2.8 J/K/mol | molar heat capacity at constant volume (548.29 K, Mass density=347.06 kg/m3): 236.45 ± 2.2 J/K/mol | molar heat capacity at constant volume (548.47 K, Mass density=284.93 kg/m3): 248.31 ± 2.5 J/K/mol | molar heat capacity at constant volume (548.47 K, Mass density=286.65 kg/m3): 278.55 ± 2.8 J/K/mol | molar heat capacity at constant volume (548.47 K, Mass density=347.06 kg/m3): 235.71 ± 2.2 J/K/mol | molar heat capacity at constant volume (548.65 K, Mass density=286.65 kg/m3): 278.03 ± 2.8 J/K/mol | molar heat capacity at constant volume (548.65 K, Mass density=347.06 kg/m3): 234.22 ± 2.2 J/K/mol | molar heat capacity at constant volume (550.28 K, Mass density=284.93 kg/m3): 236.74 ± 2.4 J/K/mol | molar heat capacity at constant volume (550.46 K, Mass density=284.93 kg/m3): 238.08 ± 2.4 J/K/mol | molar heat capacity at constant volume (550.46 K, Mass density=403.55 kg/m3): 218.66 ± 2.2 J/K/mol | molar heat capacity at constant volume (550.64 K, Mass density=403.55 kg/m3): 217.92 ± 2.2 J/K/mol | molar heat capacity at constant volume (550.82 K, Mass density=284.93 kg/m3): 236.52 ± 2.4 J/K/mol | molar heat capacity at constant volume (550.82 K, Mass density=403.55 kg/m3): 220.88 ± 2.2 J/K/mol | molar heat capacity at constant volume (551 K, Mass density=284.93 kg/m3): 236.3 ± 2.4 J/K/mol | molar heat capacity at constant volume (551 K, Mass density=403.55 kg/m3): 220.88 ± 2.2 J/K/mol | molar heat capacity at constant volume (551.18 K, Mass density=403.55 kg/m3): 220.14 ± 2.2 J/K/mol | molar heat capacity at constant volume (551.36 K, Mass density=403.55 kg/m3): 220.88 ± 2.2 J/K/mol | molar heat capacity at constant volume (557.3 K, Mass density=286.65 kg/m3): 252.16 ± 2.5 J/K/mol | molar heat capacity at constant volume (557.3 K, Mass density=347.06 kg/m3): 220.14 ± 2.2 J/K/mol | molar heat capacity at constant volume (557.48 K, Mass density=286.65 kg/m3): 253.13 ± 2.5 J/K/mol | molar heat capacity at constant volume (557.48 K, Mass density=347.06 kg/m3): 220.88 ± 2.2 J/K/mol | molar heat capacity at constant volume (557.66 K, Mass density=286.65 kg/m3): 251.94 ± 2.5 J/K/mol | molar heat capacity at constant volume (557.66 K, Mass density=347.06 kg/m3): 217.92 ± 2.2 J/K/mol | molar heat capacity at constant volume (557.84 K, Mass density=286.65 kg/m3): 252.16 ± 2.5 J/K/mol | molar heat capacity at constant volume (557.84 K, Mass density=347.06 kg/m3): 220.14 ± 2.2 J/K/mol | molar heat capacity at constant volume (558.02 K, Mass density=286.65 kg/m3): 253.64 ± 2.6 J/K/mol | molar heat capacity at constant volume (558.2 K, Mass density=284.93 kg/m3): 236.45 ± 2.4 J/K/mol | molar heat capacity at constant volume (558.2 K, Mass density=286.65 kg/m3): 258.98 ± 2.6 J/K/mol | molar heat capacity at constant volume (558.38 K, Mass density=284.93 kg/m3): 243.27 ± 2.4 J/K/mol | molar heat capacity at constant volume (558.38 K, Mass density=286.65 kg/m3): 261.43 ± 2.7 J/K/mol | molar heat capacity at constant volume (558.56 K, Mass density=284.93 kg/m3): 241.49 ± 2.4 J/K/mol | molar heat capacity at constant volume (558.56 K, Mass density=286.65 kg/m3): 257.05 ± 2.6 J/K/mol | molar heat capacity at constant volume (558.74 K, Mass density=284.93 kg/m3): 241.71 ± 2.4 J/K/mol | molar heat capacity at constant volume (558.74 K, Mass density=286.65 kg/m3): 258.02 ± 2.6 J/K/mol | molar heat capacity at constant volume (558.92 K, Mass density=284.93 kg/m3): 246.38 ± 2.5 J/K/mol | molar heat capacity at constant volume (558.92 K, Mass density=286.65 kg/m3): 259.28 ± 2.6 J/K/mol | molar heat capacity at constant volume (559.09 K, Mass density=286.65 kg/m3): 264.39 ± 2.7 J/K/mol | molar heat capacity at constant volume (559.27 K, Mass density=286.65 kg/m3): 254.83 ± 2.6 J/K/mol | molar heat capacity at constant volume (559.45 K, Mass density=286.65 kg/m3): 252.68 ± 2.5 J/K/mol | molar heat capacity at constant volume (559.63 K, Mass density=286.65 kg/m3): 264.39 ± 2.7 J/K/mol | molar heat capacity at constant volume (560.64 K, Mass density=284.93 kg/m3): 246.75 ± 2.5 J/K/mol | molar heat capacity at constant volume (560.89 K, Mass density=286.65 kg/m3): 262.17 ± 2.7 J/K/mol | molar heat capacity at constant volume (561.24 K, Mass density=286.65 kg/m3): 254.83 ± 2.6 J/K/mol | molar heat capacity at constant volume (561.42 K, Mass density=286.65 kg/m3): 257.28 ± 2.6 J/K/mol | molar heat capacity at constant volume (561.6 K, Mass density=286.65 kg/m3): 257.79 ± 2.6 J/K/mol | molar heat capacity at constant volume (561.78 K, Mass density=286.65 kg/m3): 256.83 ± 2.6 J/K/mol | molar heat capacity at constant volume (561.96 K, Mass density=286.65 kg/m3): 257.57 ± 2.6 J/K/mol | molar heat capacity at constant volume (562.14 K, Mass density=286.65 kg/m3): 257.05 ± 2.6 J/K/mol | molar heat capacity at constant volume (562.32 K, Mass density=286.65 kg/m3): 258.98 ± 2.6 J/K/mol | molar heat capacity at constant volume (562.49 K, Mass density=286.65 kg/m3): 254.61 ± 2.6 J/K/mol | molar heat capacity at constant volume (562.67 K, Mass density=286.65 kg/m3): 256.61 ± 2.6 J/K/mol
